Data published in patent US20230085307A1, “PYRIDAZINONE COMPOUND AND HERBICIDE” (NISSAN CHEMICAL CORPORATION, priority 2019, published 2023).

How the values were obtained:
persian speedwell = assay: Test Example 4: herbicidal effect by soil treatment (Table 19, symbol R); assay type: in vivo, Persian speedwell (Veronica persica); conditions: amount of applied herbicide 320 g/ha
Outline: (§1)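 Scoring uses the grading scale of an earlier test, three weeks post-application. Treatment consists of spraying a diluted emulsion formulation across the surface of sterilized diluvial soil in which seeds are buried near 1.5 cm deep; boxes are kept in a greenhouse between 25° C. and 30° C.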

blackgrass [1] = assay: Test Example 4: herbicidal effect by soil treatment (Table 19, symbol J); assay type: in vivo, blackgrass (Alopecurus myosuroides); conditions: amount of applied herbicide 320 g/ha
Outline: as §1

wild oat [2] = assay: Test Example 4: herbicidal effect by soil treatment (Table 19, symbol I); assay type: in vivo, wild oat (Avena fatua); conditions: amount of applied herbicide 320 g/ha
Outline: as §1

velvetleaf [3] = assay: Test Example 5: herbicidal effect by foliage application, plastic box (Table 20, symbol M); assay type: in vivo, velvetleaf (Abutilon theophrasti); conditions: 320 g/ha
Outline: (§2)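 Post-emergence foliar test in sterilized diluvial soil. Compound applied as water-diluted emulsion at a predetermined rate to 14-day-old plants; evaluation at three weeks.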

Japanese bulrush [4] = assay: Test Example 2: herbicidal activity, application during weed generation under submerged conditions (Table 17, symbol B); assay type: in vivo, Japanese bulrush (Schoenoplectus juncoides); conditions: for herbicidal effect rating, B: Japanese bulrush: AAH 320 g/ha, application during weed generation, submerged conditions
Outline: (§3)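 Mixed weed seedlings in alluvial soil under a 4 cm water layer, greenhouse-grown at 25–30° C. Compound given as a diluted emulsion into the floodwater at the 1–2 leaf stage; response graded after three weeks.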

redroot pigweed = assay: Test Example 4: herbicidal effect by soil treatment (Table 19, symbol N); assay type: in vivo, redroot pigweed (Amaranthus retroflexus); conditions: amount of applied herbicide 320 g/ha
Outline: as §1

Italian ryegrass [5] = assay: Test Example 4: herbicidal effect by soil treatment (Table 19, symbol K); assay type: in vivo, Italian ryegrass (Lolium multiflorum); conditions: amount of applied herbicide 320 g/ha
Outline: as §1

lambsquarters = assay: Test Example 4: herbicidal effect by soil treatment (Table 19, symbol O); assay type: in vivo, lambsquarters (Chenopodium album); conditions: amount of applied herbicide 320 g/ha
Outline: as §1

late watergrass = assay: Test Example 1: herbicidal activity, application before weed generation under submerged conditions (Table 16, symbol A); assay type: in vivo, late watergrass (Echinochloa oryzicola); conditions: amount of applied herbicide 320 g/ha
Outline: (§4)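 Alluvial soil was flooded to 4 cm depth, weed seeds were sown mixed and 2.5-leaf rice seedlings were transplanted. On sowing day, the compound's emulsion, diluted in water to a set dose, was applied to the water surface. Plants grew at 25–30 °C and were scored 0–5 after three weeks.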

blackgrass [6] = assay: Test Example 5: herbicidal effect by foliage application, plastic box (Table 20, symbol J); assay type: in vivo, blackgrass (Alopecurus myosuroides); conditions: 320 g/ha
Outline: as §2

Italian ryegrass [7] = assay: Test Example 5: herbicidal effect by foliage application, plastic box (Table 20, symbol K); assay type: in vivo, Italian ryegrass (Lolium multiflorum); conditions: 320 g/ha
Outline: as §2

southern crabgrass = assay: Test Example 5: herbicidal effect by foliage application, plastic box (Table 20, symbol F); assay type: in vivo, southern crabgrass (Digitaria ciliaris); conditions: 320 g/ha
Outline: as §2

oval-leafed pondweed = assay: Test Example 2: herbicidal activity, application during weed generation under submerged conditions (Table 17, symbol C); assay type: in vivo, oval-leafed pondweed (Monochoria vaginalis); conditions: for herbicidal effect rating, C: oval-leafed pondweed: AAH 320 g/ha, application during weed generation, submerged conditions
Outline: as §3

green foxtail [8] = assay: Test Example 4: herbicidal effect by soil treatment (Table 19, symbol G); assay type: in vivo, green foxtail (Setaria viridis); conditions: amount of applied herbicide 320 g/ha
Outline: as §1

windgrass = assay: Test Example 5: herbicidal effect by foliage application, plastic box (Table 20, symbol L); assay type: in vivo, windgrass (Apera spica-venti); conditions: 320 g/ha
Outline: as §2

wild oat [9] = assay: Test Example 5: herbicidal effect by foliage application, plastic box (Table 20, symbol I); assay type: in vivo, wild oat (Avena fatua); conditions: 320 g/ha
Outline: as §2

velvetleaf [10] = assay: Test Example 4: herbicidal effect by soil treatment (Table 19, symbol M); assay type: in vivo, velvetleaf (Abutilon theophrasti); conditions: amount of applied herbicide 320 g/ha
Outline: as §1

chickweed = assay: Test Example 5: herbicidal effect by foliage application, plastic box (Table 20, symbol P); assay type: in vivo, common chickweed (Stellaria media); conditions: 320 g/ha
Outline: as §2

barnyard grass = assay: Test Example 5: herbicidal effect by foliage application, plastic box (Table 20, symbol H); assay type: in vivo, barnyard grass (Echinochloa crus-galli); conditions: 320 g/ha
Outline: as §2

green foxtail [11] = assay: Test Example 5: herbicidal effect by foliage application, plastic box (Table 20, symbol G); assay type: in vivo, green foxtail (Setaria viridis); conditions: 320 g/ha
Outline: as §2

Japanese bulrush [12] = assay: Test Example 1: herbicidal activity, application before weed generation under submerged conditions (Table 16, symbol B); assay type: in vivo, Japanese bulrush (Schoenoplectus juncoides); conditions: amount of applied herbicide 320 g/ha
Outline: as §4

[13] = foliage application, three weeks after application
[14] = foliage application, evaluated 3 weeks after application
[15] = application during weed generation under submerged conditions, amount of applied herbicide 320 g/ha
[16] = foliage application after 14-day growth, evaluated three weeks after application

CCCCCOc1ccc2c(-c3c(O)c(C)nn(C)c3=O)c(-c3ccccc3OC)sc2c1 [3-108]
R: persian speedwell, herbicidal effect grade (persian speedwell): 0 (Herbicidal rate of 5% or less (almost no effect)) | J: blackgrass, herbicidal effect grade (blackgrass [1]): 0 (Herbicidal rate of 5% or less (almost no effect)) | I: wild oat, herbicidal effect grade (wild oat [2]): 0 (Herbicidal rate of 5% or less (almost no effect)) | M: velvetleaf, herbicidal effect grade (velvetleaf [3]; [13]): 2 (Herbicidal rate of 20% or more and less than 40%) | herbicidal effect rating, B: Japanese bulrush (Japanese bulrush [4]): 2 (Herbicidal rate of 20% or more and less than 40%) | N: redroot pigweed, herbicidal effect grade (redroot pigweed): 4 (Herbicidal rate of 70% or more and less than 90%) | K: Italian ryegrass, herbicidal effect grade (Italian ryegrass [5]): 0 (Herbicidal rate of 5% or less (almost no effect)) | O: lambsquarters, herbicidal effect grade (lambsquarters): 4 (Herbicidal rate of 70% or more and less than 90%) | Herbicidal effect, A: late watergrass (late watergrass): 3 (Herbicidal rate of 40% or more and less than 70%) | J: blackgrass, herbicidal effect grade (blackgrass [6]; [13]): 0 (Herbicidal rate of 5% or less (almost no effect)) | K: Italian ryegrass, herbicidal effect grade (Italian ryegrass [7]; [13]): 0 (Herbicidal rate of 5% or less (almost no effect)) | F: southern crabgrass, herbicidal effect grade (southern crabgrass; [13]): 0 (Herbicidal rate of 5% or less (almost no effect)) | herbicidal effect rating, C: oval-leafed pondweed (oval-leafed pondweed): 0 (Herbicidal rate of 5% or less (almost no effect)) | G: green foxtail, herbicidal effect grade (green foxtail [8]): 0 (Herbicidal rate of 5% or less (almost no effect)) | L: windgrass, herbicidal effect grade (windgrass; [13]): 0 (Herbicidal rate of 5% or less (almost no effect)) | I: wild oat, herbicidal effect grade (wild oat [9]; [13]): 0 (Herbicidal rate of 5% or less (almost no effect)) | M: velvetleaf, herbicidal effect grade (velvetleaf [10]): 0 (Herbicidal rate of 5% or less (almost no effect)) | P: chickweed, herbicidal effect grade (chickweed; [13]): 3 (Herbicidal rate of 40% or more and less than 70%) | H: barnyard grass, herbicidal effect grade (barnyard grass; [13]): 0 (Herbicidal rate of 5% or less (almost no effect)) | G: green foxtail, herbicidal effect grade (green foxtail [11]; [13]): 3 (Herbicidal rate of 40% or more and less than 70%) | Herbicidal effect, B: Japanese bulrush (Japanese bulrush [12]): 3 (Herbicidal rate of 40% or more and less than 70%)

Cc1ccc2oc(-c3ccc(OCC(C)C)cc3)c(-c3c(O)c(C)nn(C)c3=O)c2c1 [9-051]
R: persian speedwell, herbicidal effect grade (persian speedwell): 5 (Herbicidal rate of 90% or more (almost completely withered)) | J: blackgrass, herbicidal effect grade (blackgrass [1]): 5 (Herbicidal rate of 90% or more (almost completely withered)) | I: wild oat, herbicidal effect grade (wild oat [2]): 0 (Herbicidal rate of 5% or less (almost no effect)) | M (velvetleaf) herbicidal effect grade (velvetleaf [3]; [14]): 5 (Herbicidal rate of 90% or more (almost completely withered)) | herbicidal effect grade, B: Japanese bulrush (Japanese bulrush [4]; [15]): 4 (Herbicidal rate of 70% or more and less than 90%) | N: redroot pigweed, herbicidal effect grade (redroot pigweed): 5 (Herbicidal rate of 90% or more (almost completely withered)) | K: Italian ryegrass, herbicidal effect grade (Italian ryegrass [5]): 5 (Herbicidal rate of 90% or more (almost completely withered)) | O: lambsquarters, herbicidal effect grade (lambsquarters): 5 (Herbicidal rate of 90% or more (almost completely withered)) | Herbicidal effect, A: late watergrass (late watergrass): 5 (Herbicidal rate of 90% or more (almost completely withered)) | J (blackgrass) herbicidal effect grade (blackgrass [6]; [14]): 5 (Herbicidal rate of 90% or more (almost completely withered)) | K (Italian ryegrass) herbicidal effect grade (Italian ryegrass [7]; [14]): 5 (Herbicidal rate of 90% or more (almost completely withered)) | F (southern crabgrass) herbicidal effect grade (southern crabgrass; [14]): 5 (Herbicidal rate of 90% or more (almost completely withered)) | herbicidal effect grade, C: oval-leafed pondweed (oval-leafed pondweed; [15]): 5 (Herbicidal rate of 90% or more (almost completely withered)) | G: green foxtail, herbicidal effect grade (green foxtail [8]): 5 (Herbicidal rate of 90% or more (almost completely withered)) | L (windgrass) herbicidal effect grade (windgrass; [14]): 2 (Herbicidal rate of 20% or more and less than 40%) | I (wild oat) herbicidal effect grade (wild oat [9]; [14]): 1 (Herbicidal rate of 5% or more and less than 20%) | M: velvetleaf, herbicidal effect grade (velvetleaf [10]): 3 (Herbicidal rate of 40% or more and less than 70%) | P (chickweed) herbicidal effect grade (chickweed; [14]): 5 (Herbicidal rate of 90% or more (almost completely withered)) | H (barnyard grass) herbicidal effect grade (barnyard grass; [14]): 4 (Herbicidal rate of 70% or more and less than 90%) | G (green foxtail) herbicidal effect grade (green foxtail [11]; [14]): 5 (Herbicidal rate of 90% or more (almost completely withered)) | Herbicidal effect, B: Japanese bulrush (Japanese bulrush [12]): 5 (Herbicidal rate of 90% or more (almost completely withered))

COc1ccc2c(-c3c(OC(=O)C4CCCCC4)c(C)nn(C)c3=O)c(-c3ccccc3OC)sc2c1 [3-156]
Herbicidal effect by soil treatment, R: persian speedwell (persian speedwell): 4 (Herbicidal rate of 70% or more and less than 90%) | Herbicidal effect by soil treatment, J: blackgrass (blackgrass [1]): 0 (Herbicidal rate of 5% or less (almost no effect)) | Herbicidal effect by soil treatment, I: wild oat (wild oat [2]): 0 (Herbicidal rate of 5% or less (almost no effect)) | herbicidal effect on M: velvetleaf (evaluation grade 0-5) (velvetleaf [3]; [16]): 5 (Herbicidal rate of 90% or more (almost completely withered)) | herbicidal effect rating, B: Japanese bulrush (Japanese bulrush [4]): 4 (Herbicidal rate of 70% or more and less than 90%) | Herbicidal effect by soil treatment, N: redroot pigweed (redroot pigweed): 0 (Herbicidal rate of 5% or less (almost no effect)) | Herbicidal effect by soil treatment, K: Italian ryegrass (Italian ryegrass [5]): 0 (Herbicidal rate of 5% or less (almost no effect)) | Herbicidal effect by soil treatment, O: lambsquarters (lambsquarters): 0 (Herbicidal rate of 5% or less (almost no effect)) | Herbicidal effect, A: late watergrass (late watergrass): 5 (Herbicidal rate of 90% or more (almost completely withered)) | herbicidal effect on J: blackgrass (evaluation grade 0-5) (blackgrass [6]; [16]): 4 (Herbicidal rate of 70% or more and less than 90%) | herbicidal effect on K: Italian ryegrass (evaluation grade 0-5) (Italian ryegrass [7]; [16]): 3 (Herbicidal rate of 40% or more and less than 70%) | herbicidal effect on F: southern crabgrass (evaluation grade 0-5) (southern crabgrass; [16]): 5 (Herbicidal rate of 90% or more (almost completely withered)) | herbicidal effect rating, C: oval-leafed pondweed (oval-leafed pondweed): 5 (Herbicidal rate of 90% or more (almost completely withered)) | Herbicidal effect by soil treatment, G: green foxtail (green foxtail [8]): 0 (Herbicidal rate of 5% or less (almost no effect)) | herbicidal effect on L: windgrass (evaluation grade 0-5) (windgrass; [16]): 5 (Herbicidal rate of 90% or more (almost completely withered)) | herbicidal effect on I: wild oat (evaluation grade 0-5) (wild oat [9]; [16]): 4 (Herbicidal rate of 70% or more and less than 90%) | Herbicidal effect by soil treatment, M: velvetleaf (velvetleaf [10]): 0 (Herbicidal rate of 5% or less (almost no effect)) | herbicidal effect on P: chickweed (evaluation grade 0-5) (chickweed; [16]): 5 (Herbicidal rate of 90% or more (almost completely withered)) | herbicidal effect on H: barnyard grass (evaluation grade 0-5) (barnyard grass; [16]): 5 (Herbicidal rate of 90% or more (almost completely withered)) | herbicidal effect on G: green foxtail (evaluation grade 0-5) (green foxtail [11]; [16]): 5 (Herbicidal rate of 90% or more (almost completely withered)) | Herbicidal effect, B: Japanese bulrush (Japanese bulrush [12]): 4 (Herbicidal rate of 70% or more and less than 90%)
